Test results from publication PMC8022858, “Discovery of bone morphogenetic protein 7-derived peptide sequences that attenuate the human osteoarthritic chondrocyte phenotype” (Molecular Therapy. Methods & Clinical Development, 2021).

Key:
[1] = system: OA-HACs with NKX3-2 knockdown; assay: NKX3-2 siRNA knockdown and peptide treatment, hypertrophy gene expression; type: cell-based, human; conditions: OA-HAC pool (n = 4 donors), then 100 nM peptide 24 h (Figure 5A); for chondrocyte hypertrophy-inhibiting bioactivity in control (scrambled siRNA) condition: 100 nM siRNA 24 h; for rescue of hypertrophy-inducing consequences of NKX3-2 knockdown: NKX3-2 siRNA 100 nM 24 h
Source text: A chondrocyte phenotypic consequence of exposure to peptides p[63−82] or p[113−132] is an overall attenuation of hypertrophy. Previously, we[17]^,[27] and others[29]^,[30] recognized NKX3-2 (BAPX1) as an important negative regulator of chondrocyte hypertrophy, and the hypertrophy-inhibiting action of BMP7 on OA-HACs is, at least in part, mediated via NKX3-2.[27] Taking into consideration that the ability to induce NKX3-2 expression was one of the screening criteria for the identification of the here-described, BMP7-derived peptides (Figures 2 and S2), we next investigated whether NKX3-2 is involved in the bioactivity of peptides p[63−82] and p[113−132]. By means of small interfering (si)RNA transfection, NKX3-2 expression was reduced in a pool of OA-HACs. […] Treatment of control conditions (scrambled siRNA) with peptide p[63−82] or p[113−132]confirmed the peptides’ chondrocyte hypertrophy-inhibiting bioactivity (Figure 5A).
Figure 5 Molecular characterization of peptides p[63−82] and p[113−132] (A) A pool of OA-HACs (n = 4 donors) was transfected with a scrambled siRNA or with an NKX3-2 siRNA (100 nM siRNA) and cultured for 24 h. Cultures were then exposed to peptide p[63−82] or p[113−132] (100 nM peptide). Samples were harvested 24 h later and analyzed for the expression of the indicated mRNAs (normalized to 28S rRNA). (B) SW1353 chondrocytic cells were transfected with BRE (SMAD1/5/8 reporter) or CAGA12 (SMAD2/3 reporter) firefly luciferase-reporter plasmids. A CMV-Gaussia plasmid was cotransfected as a transfection control. Cells were then cultured for 24 h and subsequently exposed to control, p[63−82], or p[113−132] for 8 h. Firefly and Gaussia bioluminescence were measured in cells and medium (respectively), and relative light units (RLUs) of firefly luciferase were normalized for the Gaussia luciferase signal. The normalized firefly luciferase signal of the control condition was set at 1, and peptide conditions were calculated relative to the control condition (FL/GL). Error bars represent mean ± SEM; statistical significance for peptide conditions versus siScrambled or siNKX3-2 (A) or control condition (B) as determined by unpaired two-tailed Student’s t test is represented as ∗p < 0.05, ∗∗p < 0.01, and ∗∗∗p < 0.001. […] An alanine-scanning bioactivity score (sum of the fold change gene expression of COL10A1, ALPL, MMP13, and COL2A1 plus NKX3-2 of the alanine-substituted peptides versus the wild-type p[63−82] peptide) was calculated for each alanine substitution in the amino acid sequence of peptide p[63−82] and is represented by the height of each letter on the y axis (data in Figure S4). […]

[2] = system: CAGA12 reporter (SMAD3 dependent) in SW1353 chondrocytic cells; assay: CAGA12 firefly luciferase reporter assay; type: cell-based; conditions: 8 h peptide exposure, firefly normalized to Gaussia luciferase, relative to control (Figure 5B)
Procedure: Figure 5 Molecular characterization of peptides p[63−82] and p[113−132] (A) A pool of OA-HACs (n = 4 donors) was transfected with a scrambled siRNA or with an NKX3-2 siRNA (100 nM siRNA) and cultured for 24 h. Cultures were then exposed to peptide p[63−82] or p[113−132] (100 nM peptide). Samples were harvested 24 h later and analyzed for the expression of the indicated mRNAs (normalized to 28S rRNA). (B) SW1353 chondrocytic cells were transfected with BRE (SMAD1/5/8 reporter) or CAGA12 (SMAD2/3 reporter) firefly luciferase-reporter plasmids. A CMV-Gaussia plasmid was cotransfected as a transfection control. Cells were then cultured for 24 h and subsequently exposed to control, p[63−82], or p[113−132] for 8 h. Firefly and Gaussia bioluminescence were measured in cells and medium (respectively), and relative light units (RLUs) of firefly luciferase were normalized for the Gaussia luciferase signal. The normalized firefly luciferase signal of the control condition was set at 1, and peptide conditions were calculated relative to the control condition (FL/GL). Error bars represent mean ± SEM; statistical significance for peptide conditions versus siScrambled or siNKX3-2 (A) or control condition (B) as determined by unpaired two-tailed Student’s t test is represented as ∗p < 0.05, ∗∗p < 0.01, and ∗∗∗p < 0.001. […]

Row | Substance | chondrocyte hypertrophy-inhibiting bioactivity in control (scrambled siRNA) condition [1] | rescue of hypertrophy-inducing consequences of NKX3-2 knockdown [1] | CAGA12-reporter activity [2]
1 | H-AAYYSEGESAFPLNSYMNAT-OH [p[63−82]] | confirmed | did not show rescue | diminished
2 | H-SVLYFDDSSNVILKKYRNMV-OH [p[113−132]] | confirmed | did not show rescue | diminished
